Laboratory results taken from patent US20150272863A1, “H3 ANTAGONIST BY-PRODUCT, ITS MANUFACTURE, AND METHOD OF USING BY-PRODUCT TO REDUCE PIGMENTATION IN SKIN” (Active Concepts, LLC, priority 2014, published 2015).
Structures can show the parent of a compound that is named as a salt.

Tested on: mouse melanoma cells (B16F10 cell line)
Test: Melanin inhibition assay
Assay type: cell-based
Conditions: found through experimentation; H3 antagonists
Method: The assays utilized mouse melanoma cells (B16F10 cell line) which are very efficient at producing melanin. Various inhibitors and enhancers of melanin synthesis were added to the cultured cells along with experimental samples.
The B16F10 murine melanocytes were seeded into 24-well tissue culture plates and allowed to grow to confluency in complete DMEM. Solutions of H3 antagonists, Arbutin, alpha-Melanocyte Stimulating Hormone (a-MSH), and AA2G were prepared in Complete DMEM. Complete Dulbeco's Modified Eagle Media (DMEM) was used as the untreated control. Additionally, the individual components of the H3 antagonists, Yeast Peptide and Plant Extract, were also analyzed for melanogenic effects. Cells were treated for 72 hours.
For the inhibition assay, the media was removed from the wells and the monolayers were washed with phosphate buffered saline (PBS). NaOH was added to each well and 100 μL of each solution were added to a 96-well plate in duplicate. The plate was measured by optical density readings at 400 nm.
As discussed above, skin pigmentation is determined by the amount of melanin in the skin which is produced by […] melanocytes. In addition to the melanin inhibition study comparing the fermented plant abstract to AA2G, Arbutin, α-MSH, and Kojic acid, a melanin inhibition study was conducted to compare the fermented plant extract with its individual components—peptide from yeast and plant extract—to assess their ability to inhibit melanin synthesis. The melanin assay was conducted using the same methodogies as discussed above with respect to H3 antagonists, in general.

| Compound | suitability to reduce or eliminate pigmentation in a users skin |
| --- | --- |
| N=C(N)SCCc1cnc[nH]1 [Imetit dihydrobromide] | suitable for use as a by-product in cosmetics to reduce or eliminate pigmentation |
| NCCCCCc1cnc[nH]1 [Impentamine dihydrobromide] | suitable for use as a by-product in cosmetics to reduce or eliminate pigmentation |
| C[C@H]1[C@H]2CC[C@H]3[C@@H]4CC=C5C[C@@H](N(C)C)CC[C@]5(C)[C@H]4CC[C@]23CN1C [Conessine] | suitable for use as a by-product in cosmetics to reduce or eliminate pigmentation |
| Br.Br.C[C@@H](N)Cc1c[nH]cn1 [(R)-(-)-a-Methylhistamine dihydrobromide] | suitable for use as a by-product in cosmetics to reduce or eliminate pigmentation |
